What was measured:
[1] = tested on: IL-1β in supernatants of peripheral blood mononuclear cells; test: IL-1β assay: BzATP- or ATP-induced IL-1β release from LPS-treated human peripheral blood mononuclear cells; assay type: cell-based; settings: 2 h; IL-1β in supernatants of LPS-treated human PBMC; BzATP (1 mM) or ATP (5 mM), 120 min
Description: Human whole blood from healthy volunteers was diluted with equal volume of saline and peripheral blood mononuclear cells were collected by using a Limphoprep tube (Daiichi Pure Chemicals), washed with physiological saline and seeded onto a 96-well plate with a medium containing 1-10 ng/mL LPS (SIGMA). 30 minutes later, the cells were treated with varying concentrations of various compounds and incubated for 30 minutes. Then, the cells were treated with BzATP (final concentration 1 mM) or ATP (final concentration 5 mM) and incubated for 120 minutes. The cells were centrifugated to collect supernatents, and the concentration of IL-1β in supernatants were determined by IL-1β HTRF kit (CIS biointernational). The % inhibition rates were calculated and plotted against the logarithms of the concentrations to determine IC50.

[2] = target: T1, Human P2X7 (hP2X7) receptor (Homo sapiens, UniProt Q99572); test: Dye assay: BzATP-induced Yo-Pro-1 uptake in HEK293 cells stably expressing hP2X7; assay type: cell-based; settings: 90 min incubation
T1 construct: myc-His (from the pcDNA3.1/myc-HisA vector); expressed in transfected cells
T1 sequence (Q99572 1-595): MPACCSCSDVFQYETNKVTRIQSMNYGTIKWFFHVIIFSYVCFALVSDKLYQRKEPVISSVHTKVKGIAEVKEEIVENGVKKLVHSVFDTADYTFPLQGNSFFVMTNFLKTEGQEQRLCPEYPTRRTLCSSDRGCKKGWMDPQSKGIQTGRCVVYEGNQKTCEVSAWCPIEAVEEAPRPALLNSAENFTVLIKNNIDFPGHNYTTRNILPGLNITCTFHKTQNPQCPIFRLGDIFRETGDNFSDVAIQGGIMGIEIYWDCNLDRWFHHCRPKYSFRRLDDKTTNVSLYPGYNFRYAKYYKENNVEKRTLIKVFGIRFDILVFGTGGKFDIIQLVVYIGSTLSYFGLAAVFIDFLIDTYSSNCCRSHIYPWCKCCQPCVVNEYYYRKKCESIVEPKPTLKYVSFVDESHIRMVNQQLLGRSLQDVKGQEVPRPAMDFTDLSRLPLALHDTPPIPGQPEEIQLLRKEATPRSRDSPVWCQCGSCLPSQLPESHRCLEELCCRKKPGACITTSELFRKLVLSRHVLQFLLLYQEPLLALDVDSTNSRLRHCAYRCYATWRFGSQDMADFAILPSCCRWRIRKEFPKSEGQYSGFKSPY
In short: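 HEK293 cells stably expressing cloned human P2X7 (595 aa) were preincubated 30 min with compound, then given 2 μM Yo-Pro-1 and 0.1 mM BzATP (final) for 90 min. Dye uptake read by fluorescence (ex 485/em 535 nm); IC50 derived from % inhibition versus log concentration.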

[3] = BzATP (0.1 mM)-induced Yo-Pro-1 uptake, compounds 30 min pre-treatment
[4] = BzATP 0.1 mM, Yo-Pro-1 2 μM, 30 min pre-treatment

| SMILES | IC50 [1] | IC50 [2, 3] | IC50 [2, 4] |
| --- | --- | --- | --- |
| CCN(CC)c1ccc(C(=O)Cn2ncc(N[C@@H]3C[C@@H]4C[C@H]([C@H]3C)C4(C)C)c(Br)c2=O)cc1 [compound 84] | 82 nM | 4.1 nM | – |
| CCC(NC(=O)Cn1ncc(N[C@@H]2C[C@@H]3C[C@@H](C3(C)C)[C@]2(C)O)c(Br)c1=O)c1ccncc1 (stereo partly shown) [compound 358] | 38 nM | 10 nM | – |
| COc1cnccc1CNC(=O)Cn1ncc(N[C@@H]2C[C@@H]3C[C@H]([C@H]2C)C3(C)C)c(Br)c1=O [compound 216] | 38 nM | 12 nM | – |
| CC1C(Nc2cnn(CC(=O)NCc3ccnnc3)c(=O)c2Br)CC2CC1C2(C)C (stereo not shown) [compound 214] | 39 nM | 3.9 nM | – |
| C[C@@H]1[C@H]2C[C@@H](C[C@H]1Nc1cnn(CC(=O)NCc3ccnnc3Cl)c(=O)c1Cl)C2(C)C [compound 433] | 51 nM | – | 6.2 nM |
| C[C@@H]1[C@H]2C[C@@H](C[C@H]1Nc1cnn(CC(=O)NCc3ccncc3)c(=O)c1Br)C2(C)C [compound 9] | 47 nM | 3.5 nM | – |
| C[C@@H]1[C@H]2C[C@@H](C[C@H]1Nc1cnn(CC(=O)N[C@H](C)c3ccncc3)c(=O)c1Cl)C2(C)C [compound 230] | 3.1 nM | 2.8 nM | – |
| C[C@@H]1[C@H]2C[C@@H](C[C@H]1Nc1cnn(CC(=O)NCc3ccncc3N(C)C)c(=O)c1Cl)C2(C)C [compound 277] | 4.3 nM | 3.7 nM | – |
| C[C@@H]1[C@H]2C[C@@H](C[C@H]1Nc1cnn(CCNCc3ccncc3)c(=O)c1Br)C2(C)C [Synthetic Example 47, 4-Bromo-2-[2-(pyridin-4-ylmethylamino)ethyl]-5-[(1R,2R,3R,5S)-2,6,6-trimethylbicyclo[3.1.1]hept-3-ylamino]pyridazin-3(2H)-one] | 61 nM | 21 nM | – |
| C[C@@H]1[C@H]2C[C@@H](C[C@H]1Nc1cnn(CC(=O)NCc3ccnnc3N(C)C)c(=O)c1Cl)C2(C)C [compound 435] | 36 nM | – | 3.2 nM |
| CC(NC(=O)Cn1ncc(N[C@@H]2C[C@@H]3C[C@H]([C@H]2C)C3(C)C)c(Br)c1=O)c1ccncc1 (stereo partly shown) [compound 39] | 19 nM | 6.3 nM | – |
